As usually defined, the IC50 is the concentration at which inhibition is half-maximal. Low readings indicate greater potency in that assay, high ones weaker potency in that assay.

Entries after “also recorded” stand apart in the source; their conditions may differ.

Experiment [1] has as its system M2 mouse MPNST cells. Description: CellTiter-Glo cell viability assay. The experiment is classed as cell-based. The note with it: 48 h, 48 h treatment. The protocol:
Cell viability assays. M2 cells were seeded at 50,000 cells per well in 96-well cell culture plates overnight. After treatment, the cells were analyzed for viability using the ATP-based CellTiter-Glo Luminescent Cell Viability Assay (Promega, Madison, WI).
A general note: In ATP-based viability assays light output follows the ATP content of the culture.

A further experiment has as its system ERK activation (p-ERK). Description: Western blot for p-ERK in M2 cells. The experiment is classed as cell-based, mouse. The protocol:
Western blots. Treated M2 cells were lysed in 1×RIPA buffer [50 mM Tris-HCL (pH 7.4), 150 mM NaCl, 1% Triton X-100, 1% sodium deoxycholate, 0.1% SDS, 1 mM EDTA, complete protease inhibitor (Roche, Basel, Switzerland) and phosphatase inhibitor (Roche, Basel, Switzerland)]. Samples were analyzed by SDS-PAGE and transferred onto PVDF membranes (Millipore, Billerica, MA). The blots were then blocked in 5% non-fat milk in TBST, followed by incubation of primary antibodies at 4° C. overnight. After washing, the blots were incubated in horseradish peroxidase (HRP)-conjugated secondary antibodies at room temperature for 1 hour. Signals were detected using ECL or ECL plus (GE healthcare, Little Chalfont, United Kingdom) followed by film development. The primary antibodies used are as follows: p-ERK (1:1,000, rabbit, Cell Signaling, Danvers, MA), ERK (1:2,000, rabbit, Cell Signaling, Danvers, MA), and β-actin (1:10,000, mouse, Sigma-Aldrich, St. Louis, MO).
(In general: In western blotting, separated proteins are transferred to a membrane and probed.)

For experiment [2], the system named is M2 mouse MPNST cells. Put plainly: Flow cytometry for apoptosis/necrosis and cell cycle. The experiment is classed as cell-based. The note with it: 0.1, 1 and 10 μM, 24 h. The protocol: Flow cytometry. After the relevant treatments, M2 cells were stained with PE-Annexin V (BD Pharmingen, Franklin Lakes, NJ) and 7AAD (BD Pharmingen, Franklin Lakes, NJ). For cell cycle analysis, M2 cells were stained with propidium iodide (ThermoFisher Scientific, Carlsbad, CA) after treatment. Flow cytometry was performed on a BD FACSCalibur and analyzed with the FlowJo 7.6 software.
A general note: Flow cytometry measures light scatter and fluorescence of single cells or particles in a stream.

For the next experiment, the system named is M2 MPNST tumors. Put plainly: Syngeneic subcutaneous mouse model of MPNST. The experiment is classed as in vivo. The settings on record: PD901 5 mg/kg daily oral; PTT 50 μL 1 mg/mL PBNPs intratumoral, 1.5 W/cm^2 10 minutes, once. On the procedure:
In vivo studies. 1 million M2 cells were injected into the backs of B6129SF1/J mice in 100 μL 50% phosphate buffered saline (PBS, Life Technologies, Carlsbad, CA)/50% Matrigel (Corning, Corning, NY). Treatment commenced when tumors reached 10 mm in diameter. Animals were treated in four groups: (1) Untreated (n=5): animals received no treatment, (2) PTT-treated (n=5): animals were intratumorally injected with 50 μL of 1 mg/mL PBNPs and irradiated for 10 minutes with 1.5 W/cm^2 NIR laser, (3) PD901-treated (n=5): animals were given 5 mg/kg PD901 daily by oral gavage in 0.5% hydroxypropyl methylcellulose and 0.2% Tween80, and (4) PD901 plus PTT combo-treated (n=5): animals were given both PTT and PD901 treatments as listed above. […] Tumors were measured daily by calipers. For histological analysis of the effects of the treatments, tumors were harvested eight hours post treatment (treatments described above; n=2-3 per group), processed, and stained with hematoxylin and eosin (H&E) for subsequent microscopy.

As for `O=C(NOC[C@H](O)CO)c1ccc(F)c(F)c1Nc1ccc(I)cc1F` [PD901, PD-0325901], in the experiment with M2 mouse MPNST cells [1], the IC50 was about 1000 nM. Besides, the “p-ERK expression / ERK activation” value with ERK activation (p-ERK) (1 μM, 4 h or 8 h, versus vehicle) was “effectively blocked; also recorded: markedly decreased”. In the experiment with ERK activation (p-ERK) (4 h, HIGH doses: 1.0 μM PD901, 0.05 mg/mL PBNP + 1.5 W/cm^2 laser 10 minutes), the p-ERK expression result is given as “complete eradication”. The “mechanism of cell death” value with M2 mouse MPNST cells [2] was “both apoptosis (Annexin V+7AAD−) and late apoptosis/necrosis (7AAD+)”. Also, the cell cycle effect entry in the experiment on M2 mouse MPNST cells [2] (concentration-dependent) is on record as “significant arrest of M2 cells in the G0/G1 phase”. Besides, in the experiment on M2 MPNST tumors, the median survival was found to be 18 days.

The values above are taken from patent publication US11931465B2, “Functionalized Prussian blue nanoparticles, combination Prussian blue nanoparticle-based nano-immunotherapy and applications thereof” (Children's National Medical Center, priority 2016, dated 2024).
